Measured values taken from patent US9522920B2, “Bromodomain inhibitors and uses thereof” (Constellation Pharmaceuticals, Inc., priority 2010, dated 2016).
Where two headings read alike, the source gives them in different places.

Experiments:
MYC mRNA [1] = assay: cMyc RNA quantification assay (QuantiGene) in Raji cells; assay type: cell-based; details: 4 h
In short: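 MV4:11 or Raji cells were treated with a range of compound concentrations for 4 h. MYC mRNA was measured by QuantiGene 2.0, and biological duplicates were averaged and normalized to DMSO vehicle to give percent MYC mRNA.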

IL-6 secretion = assay: Cell-based IL-6 quantification assay (ELISA, Mesoscale) in LPS-stimulated THP-1 cells; details: THP-1 cells, 16 h, read-out: IL6
In short: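 THP-1 cells stimulated with LPS at 4 μg/mL final and exposed to compounds for 16 h. Supernatant IL-6 measured by Mesoscale ELISA and normalized to CellTiter-Glo cell content. Percent inhibition derived from that ratio.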

Myc RNA = Myc RNA quantification in xenograft model; assay type: in vivo, NOD SCID mice; details: for ED50: Mus musculus, Raji, po
Procedure: Female NOD SCID mice (Harlan) were inoculated s.c. with 3×10^6 Raji cells per mouse resuspended in 10% Matrigel. Tumors were grown until they reached a size of 200 mm^3 to 400 mm^3 as measured by caliper. Mice were treated orally (5 mL/kg) with different doses of compounds prepared as a 2 mg/mL suspension of Carboxy-methyl-cellulose. At the indicated time points after treatment, tumors were harvested. RNA was isolated by using TRIzol extraction and processed for QuantiGene® Assay.

BRD4(BD1) = molecular target: T1, BRD4(BD1) (Homo sapiens, UniProt O60885); assay: BRD4 AlphaLisa binding assay (Alphascreen)
T1 construct: His; made in house
In short: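 BRD4(BD1) (30 nM) incubated 20 min at room temperature with peptide (200 nM) and compound in 40 mM HEPES pH 7.0, 40 mM NaCl, 1 mM DTT, 0.01% BSA, 0.008% Brij-35, 1.2% DMSO.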

[2] = test system: LPS-induced IL-6 production; assay: In-vivo inhibition of LPS-induced IL-6 production; set-up: species or system Balb/C mice; details: for ED50: Mus musculus; for ED50 (mg/kg): Table 15, oral gavage 30 min prior to LPS, plasma IL-6 ELISA two hours after LPS challenge, 50% inhibition compared to vehicle
Procedure: Female Balb/C mice, 6 weeks old upon arrival at animal facility, and weighing 18-20 g/mouse were used for this assay. The mice are acclimated in animal facility for 5-7 days prior experiment initiation. Mice were randomly divided into experimental groups to include several doses of test article, and vehicle and dexamethasone controls. Mice were fasted from 12 hours prior to study initiation (dosing), but allowed free access to water. Mice were dosed following study group design by oral gavage 30 min prior to LPS stimulation. Dosing interval time was 1 min/mouse.
Two hours after LPS challenge animals were anesthetized by CO2 inhalation, and blood was sampled via cardiac puncture into EDTA coated tubes and placed on ice. Plasma was separated by centrifugation at 3000 g at 4° C. for 15 min. The separated plasma was divided into aliquots (50 ul/aliquot) and stored at −80° C. until plasma IL-6 ELISA and drug levels were analyzed.

MYC mRNA [3] = assay: cMyc RNA quantification assay (QuantiGene) in MV4:11 cells; assay type: cell-based; details: read-out: MYC-MV411
Procedure: MV4:11 (AML) or Raji (Burkitt's lymphoma) cells were seeded in a 96-well plate and incubated in the presence of various concentrations of compounds for 4 h. Relative mRNA levels were quantitated by using QuantiGene 2.0 assay (Affymetrix) according to the manufacturer's recommendation. Signals were detected by using an Envision plate reader (Perkin-Elmer). Biological duplicates were averaged and normalized to vehicle (DMSO) control to calculate percent MYC mRNA levels.

[4] = Homo sapiens, Table 7, Raji (Burkitt's lymphoma) cells
[5] = Homo sapiens, THP-1, 16 h, Table 7, LPS 4 μg/mL, normalised to CellTiter-Glo
[6] = Table 6, BRD4(BD1) 30 nM, H4-tetraacetyl peptide 200 nM, read-out: BRD4 Alphascreen IC50
[7] = Homo sapiens, MV4-11, 4 h, Table 7, MV4:11 (AML) cells
[8] = Table 7, Raji (Burkitt's lymphoma) cells
[9] = Table 7, LPS 4 μg/mL, normalised to CellTiter-Glo
[10] = Table 7, MV4:11 (AML) cells, 4 h
[11] = Homo sapiens, Table 14, Raji cells
[12] = Homo sapiens, THP-1, 16 h, Table 14, LPS
[13] = Table 14, BRD4 AlphaLisa Binding Assay, read-out: Alpha screen
[14] = Homo sapiens, MV4-11, 4 h, Table 14, MV4:11 cells

| SMILES | IC50 (MYC mRNA [1]; [4]) | IC50 (IL-6 secretion; [5]) | IC50 (BRD4(BD1); [6]) | IC50 (MYC mRNA [1]; [8]) | IC50 (IL-6 secretion; [9]) | IC50 (MYC mRNA [3]; [10]) | further results |
| --- | --- | --- | --- | --- | --- | --- | --- |
| Cc1noc2c1-c1sc(C)c(C)c1C(c1ccc(C#N)cc1)=NC2CC(=O)NCCF (stereo not drawn) [Compound 114] | < 500 nM | < 500 nM | < 500 nM | – | – | – | ED50 (Myc RNA): 20 to 50 mg/kg |
| CCNC(=O)C[C@@H]1N=C(c2ccc(Cl)cc2)c2c(sc(C)c2C)-c2c(C)noc21 [Compound 165, 2-((6S)-4-(4-chlorophenyl)-2,3,9-trimethyl-6H-isoxazolo[4,5-e]thieno[3,2-c]azepin-6-yl)-N-ethylacetamide] | < 500 nM | < 500 nM | < 500 nM | – | – | – | ED50 [2]: 10 to 50 mg/kg |
| CNc1nccc2c1C(c1ccc(Cl)cc1)=N[C@@H](CC(N)=O)c1onc(C)c1-2 [Compound 181, 2-((4S)-6-(4-chlorophenyl)-1-methyl-7-(methylamino)-4H-isoxazolo[5,4-c]pyrido[4,3-e]azepin-4-yl)acetamide] | < 500 nM | < 500 nM | < 500 nM | – | – | – | IC50 (MYC mRNA [3]; [7]): < 500 nM |
| Cc1noc2c1-c1cccc(Cl)c1C(c1ccc(Cl)cc1)=N[C@H]2CC(N)=O [Compound 139] | – | – | < 500 nM | < 500 nM | < 500 nM | < 500 nM | – |
| Cc1cccc2c1C(c1ccc(F)cc1)=NC(CC(N)=O)c1onc(C)c1-2 (stereo not drawn) [Compound 129] | < 500 nM | < 500 nM | < 500 nM | – | – | – | ED50 [2]: < 10 mg/kg; ED50 (Myc RNA): 20 to 50 mg/kg |
| Cc1noc2c1-c1ccccc1C(c1ccc(C#N)cc1)=N[C@H]2CC(N)=O [Compound 148] | – | – | < 500 nM | < 500 nM | < 500 nM | < 500 nM | ED50 (mg/kg) [2]: + (“+” indicates and ED50 of between 10 and 50 mg/kg) |
| Cc1noc2c1-c1ccccc1C(c1ccc(Cl)cc1)=N[C@H]2CC(N)=O [Compound 144] | – | – | – | < 500 nM | < 500 nM | < 500 nM | ED50 (mg/kg) [2]: ++ (“++” indicates an ED50 of less than 10 mg/kg); ED50 (mg/kg) (Myc RNA; Table 16, Raji xenograft tumors, oral treatment, Myc RNA by QuantiGene, 50% inhibition compared to vehicle): ++ (“++” indicates an ED50 of less than 20 mg/kg) |
| Cc1noc2c1-c1ccc(F)cc1C(c1ccc(Cl)cc1)=N[C@H]2CC(N)=O [Compound 210] | – | – | – | – | – | – | IC50 (MYC mRNA [1]; [11]): 500 to 1000 nM; IC50 (IL-6 secretion; [12]): < 500 nM; IC50 (BRD4(BD1); [13]): < 500 nM; IC50 (MYC mRNA [3]; [14]): < 500 nM |
| Cc1cccc2c1C(c1ccc(Cl)cc1)=NC(CC(N)=O)c1onc(C)c1-2 (stereo not drawn) [Compound 128] | – | – | < 500 nM | < 500 nM | < 500 nM | – | ED50 (mg/kg) [2]: ++ (“++” indicates an ED50 of less than 10 mg/kg) |
| Cc1cccc2c1C(c1ccc(OC(F)(F)F)cc1)=N[C@@H](CC(N)=O)c1onc(C)c1-2 [Compound 136] | – | – | < 500 nM | < 500 nM | < 500 nM | < 500 nM | – |
| Cc1noc2c1-c1sc(C)c(C)c1C(c1ccc(Cl)cc1)=N[C@H]2CC(N)=O [Compound 110, 2-((6S)-4-(4-chlorophenyl)-2,3,9-trimethyl-6H-isoxazolo[5,4-c]thieno[2,3-e]azepin-6-yl)acetamide] | < 500 nM | < 500 nM | < 500 nM | – | – | – | ED50 [2]: < 10 mg/kg; ED50 (Myc RNA): 20 to 50 mg/kg; IC50 (MYC mRNA [3]; [7]): < 500 nM |
| Cc1cccc2c1C(c1ccc(C(F)(F)F)cc1)=NC(CC(N)=O)c1onc(C)c1-2 (stereo not drawn) [Compound 132] | < 500 nM | < 500 nM | < 500 nM | – | – | – | ED50 [2]: < 10 mg/kg; ED50 (Myc RNA): < 20 mg/kg; IC50 (MYC mRNA [3]; [7]): < 500 nM |
| COCCNC(=O)C[C@@H]1N=C(c2ccc(Cl)cc2)c2ccccc2-c2c(C)noc21 [Compound 145] | – | – | < 500 nM | < 500 nM | < 500 nM | < 500 nM | – |
| Cc1noc2c1-c1ccc(-c3ccc(N)nc3)cc1C(c1ccc(C(F)(F)F)cc1)=N[C@H]2CC(N)=O [Compound 206] | – | – | – | – | – | – | IC50 (MYC mRNA [1]; [11]): < 500 nM; IC50 (IL-6 secretion; [12]): < 500 nM; IC50 (BRD4(BD1); [13]): < 500 nM; IC50 (MYC mRNA [3]; [14]): < 500 nM |
